Measurements as given in patent US9597342B2 (UWM Research Foundation, Inc., priority 2011, dated 2017).

Experiments:
[1] = In vitro metabolic stability using human liver microsomes
Method: The metabolic stability of 15 GABAA receptor ligands using human liver microsomes was studied. The test articles were incubated at two concentrations (1 and 10 μM) and aliquots (100 μl) were removed at various time points (0, 15, 30 and 60 minutes), and analyzed by LC-MS/MS.
(§1) The test articles were incubated at two concentrations (1 and 10 μM) in 96-well plate format with active or heat-inactivated human liver microsomes and cofactors. Aliquots were removed at 0, 15, 30 and 60 minutes and mixed with acetonitrile containing internal standard for analysis. Samples were extracted and assayed using a liquid chromatography/tandem mass spectrometry (LC-MS/MS) analytical method.
Pooled human liver microsomes (Lot #38289, pool of 150 different male and female donor livers) were obtained from BD Biosciences Corporation (Woburn, Mass.). Microsomes were stored at ˜−135° C. until use.
(§2) The test articles (1 and 10 μM) were incubated with human liver microsomes (0.5 mg protein/ml) and appropriate cofactors (2.5 mM NADPH and 3.3 mM magnesium chloride) in 100 mM phosphate buffer, pH 7.4 (0.1% final DMSO), in a 37° C. water bath. Incubations with all compounds were initiated with the addition of microsomes. At selected time points (0, 15, 30 and 60 min), a single 100 μl aliquot was removed from each sample and mixed with 200 μl of chilled acetonitrile containing internal standard. Following brief vortexing and centrifugation, the samples were further diluted into a 96-well plate for subsequent LC-MS/MS analysis. All samples were assayed in duplicate.
(§3) Experimental controls consisted of: a) incubation of all components except test article for 0 and 60 min, b) incubation of midazolam (positive control) at 10 μM for 0, 15, 30 and 60 min, and c) incubation of 1 and 10 μM test article and 10 μM midazolam with heat-inactivated microsomes (0.5 mg protein/ml) for 0 and 60 min. All controls were assayed in duplicate.
Samples were analyzed by LC-MS/MS in multiple reaction monitoring mode using positive-ion electrospray ionization. The details of the LC-MS/MS method can be provided upon request.
(§4) Data from the metabolic stability assays were transferred to and processed in a Microsoft Excel spreadsheet. To determine metabolic stability, the percent remaining at each time point was calculated by dividing the peak area ratio of test article/internal standard at each time point by the peak area ratio at 0 min multiplied by 100.

[2] = Incubation with heat-inactivated human liver microsomes (stability control); conditions: 60 min
Method: as §1, §2, §3, §4

Question: Which melting point does the source give for `O=C(OCCCCOC(=O)c1ncn2c1[C@@H]1CCCN1C(=O)c1cc(Br)ccc1-2)c1ncn2c1C1CCCN1C(=O)c1cc(Br)ccc1-2` (stereo partly shown) here?
Answer: Its melting point is 166 to 171 °C.

Question: With `O=C(OCCCCCOC(=O)c1ncn2c1[C@@H]1CCCN1C(=O)c1cc(Br)ccc1-2)c1ncn2c1C1CCCN1C(=O)c1cc(Br)ccc1-2` (stereo partly shown) as the compound, how does the melting point read?
Answer: The melting point was 157 to 161 °C.

Question: With `C#Cc1ccc2c(c1)C(c1ccccc1)=NCc1c(C(=O)OCCCOC(=O)c3ncn4c3CN(C)C(=O)c3cc(Cl)ccc3-4)ncn1-2` as the compound, how does the “Mean % Remaining vs T = 0 min, Human Liver Microsomes” value ([1]; 1 μM, 15 min) read?
Answer: Its value is 87.3%.

Question: And the “Mean % Remaining vs T = 0 min, Human Liver Microsomes” value ([1]; 1 μM, 30 min)?
Answer: Its value is 39.4%.

Question: And the “Mean % Remaining vs T = 0 min, Human Liver Microsomes” value ([1]; 10 μM, 15 min)?
Answer: The value was 107%.

Question: And the “Mean % Remaining vs T = 0 min, Human Liver Microsomes” value ([1]; 10 μM, 30 min)?
Answer: The value was 104%.

Question: And the “Mean % Remaining vs T = 0 min, Human Liver Microsomes” value ([1]; 10 μM, 60 min)?
Answer: The value was 82.8%.

Question: What about the “Mean % Remaining vs T = 0 min, with HI (Heat Inactivated) Microsomes” value ([2]; 1 μM) of the same compound?
Answer: Its value is 141%.

Question: What about the “Mean % Remaining vs T = 0 min, with HI (Heat Inactivated) Microsomes” value ([2]; 10 μM) of the same compound?
Answer: Its value is 114%.

Question: What about the melting point of the same compound?
Answer: The melting point was 179 to 184 °C.

Question: Which melting point does the source give for `C#Cc1ccc2c(c1)C(=O)N1CCCC1c1c(C(=O)OCCCOC(=O)c3ncn4c3CN(C)C(=O)c3cc(Cl)ccc3-4)ncn1-2` (stereo not shown) here?
Answer: The melting point was 174 to 176 °C.

Question: Which melting point does the source give for `C#Cc1ccc2c(c1)C(=O)N1CCCC1c1c(C(=O)N3CCN(C(=O)c4ncn5c4[C@@H]4CCCN4C(=O)c4cc(C#C)ccc4-5)CC3)ncn1-2` (stereo partly shown) here?
Answer: The melting point was 206 to 211 °C.

Question: With `C#Cc1ccc2c(c1)C(c1ccccc1)=NCc1c(C(=O)NC)ncn1-2` as the compound, how does the melting point read?
Answer: The melting point was 237 to 238 °C.

Question: Which melting point does the source give for `C#Cc1ccc2c(c1)C(c1ccccc1F)=N[C@@H](C)c1c(C(=O)OCCCCCOC(=O)c3ncn4c3CN(C)C(=O)c3cc(Cl)ccc3-4)ncn1-2` here?
Answer: Its melting point is 157 to 162 °C (dec.).

Question: Which melting point does the source give for `C#Cc1ccc2c(c1)C(c1ccccc1F)=N[C@@H](C)c1c(C(=O)OCCCCOC(=O)c3ncn4c3[C@H](C)N=C(c3ccccc3F)c3cc(C#C)ccc3-4)ncn1-2` here?
Answer: Its melting point is 158 to 160 °C.

Question: For `C#Cc1ccc2c(c1)C(c1ccccc1F)=N[C@@H](C)c1c(C(=O)OCCCCCOC(=O)c3ncn4c3[C@H](C)N=C(c3ccccc3F)c3cc(C#C)ccc3-4)ncn1-2`, which melting point is on record?
Answer: Its melting point is 150 to 155 °C.

Question: With `C#Cc1ccc2c(c1)C(c1ccccc1F)=N[C@@H](C)c1c(C(=O)N3CCN(C(=O)c4ncn5c4[C@H](C)N=C(c4ccccc4F)c4cc(C#C)ccc4-5)CC3)ncn1-2` as the compound, how does the melting point read?
Answer: Its melting point is 180 to 190 °C.

Question: With `C#Cc1ccc2c(c1)C(c1ccccc1)=NCc1c(C(=O)OCCCCCOC(=O)c3ncn4c3CN(C)C(=O)c3cc(Cl)ccc3-4)ncn1-2` as the compound, how does the melting point read?
Answer: Its melting point is 155 to 160 °C (dec.).

Question: Which melting point does the source give for `C#Cc1ccc2c(c1)C(c1ccccc1F)=NCc1c(C(=O)OCCCCCOC(=O)c3ncn4c3CN(C)C(=O)c3cc(Cl)ccc3-4)ncn1-2` here?
Answer: The melting point was 125 to 130 °C.
